Experimental data published in US10710978B2, “STK4 inhibitors for treatment of hematologic malignancies” (Dana-Farber Cancer Institute, Inc., priority 2015, dated 2020).
Where two headings read alike, the source gives them in different places.

Key:
Experiment in all cases: KiNativ assay
Format in all cases: binding
CaMK1d = CaMK1d (Homo sapiens (Human), UniProt Q8IU85); settings: H929 live cell
Experimental: (§1) Biochemical IC50s of the compounds of the present disclosure against various kinases were measured in a KiNativ assay. Compounds were screened in duplicate at 10 μM in H929 live cell. IC50 was measured via Mass spectroscopy (MS).

PEK = PEK (Homo sapiens (Human), UniProt Q9NZJ5); settings: H929 live cell
Experimental: as §1

MAP2K3 = MAP2K3 (Homo sapiens (Human), UniProt P46734); settings: H929 live cell
Experimental: as §1

MLK3 = MLK3 (Homo sapiens (Human), UniProt Q16584); settings: H929 live cell
Experimental: as §1

[1] = test system: ZC1/HGK, ZC2/TNIK, ZC3/MINK; settings: H929 live cell; for % inhibition: 10 μM, range class
Experimental: as §1

p38d, p38g = settings: H929 live cell; for % inhibition: 10 μM, range class
Experimental: as §1

MSK1 domain1 = MSK1 domain1 (Homo sapiens (Human), UniProt O75582); settings: H929 live cell
Experimental: as §1

MARK2, MARK3 = settings: H929 live cell; for % inhibition: 10 μM, range class
Experimental: as §1

NuaK2 = NuaK2 (Homo sapiens (Human), UniProt Q9H093); settings: H929 live cell
Experimental: as §1

PKR = PKR (Homo sapiens (Human), UniProt P19525); settings: H929 live cell
Experimental: as §1

JAK1 domain1 = JAK1 domain1 (Homo sapiens (Human), UniProt P23458); settings: H929 live cell
Experimental: as §1

MAP2K6 = MAP2K6 (Homo sapiens (Human), UniProt P52564); settings: H929 live cell
Experimental: as §1

MSK2 domain1 = MSK2 domain1 (Homo sapiens (Human), UniProt O75676); settings: H929 live cell
Experimental: as §1

SGK3 = SGK3 (Homo sapiens (Human), UniProt Q96BR1); settings: H929 live cell
Experimental: as §1

AurA = AurA (Homo sapiens (Human), UniProt O14965); settings: H929 live cell
Experimental: as §1

BARK1 = BARK1 (Homo sapiens (Human), UniProt P25098); settings: H929 live cell
Experimental: as §1

LYN = LYN (Homo sapiens (Human), UniProt P07948); settings: H929 live cell
Experimental: as §1

LKB1 = LKB1 (Homo sapiens (Human), UniProt Q15831); settings: H929 live cell
Experimental: as §1

NEK6, NEK7 = settings: H929 live cell; for % inhibition: 10 μM, range class
Experimental: as §1

PRPK = PRPK (Homo sapiens (Human), UniProt Q96S44); settings: H929 live cell
Experimental: as §1

MAP3K2, MAP3K3 = settings: H929 live cell; for % inhibition: 10 μM, range class
Experimental: as §1

MAST3 = MAST3 (Homo sapiens (Human), UniProt O60307); settings: H929 live cell
Experimental: as §1

NEK3 = NEK3 (Homo sapiens (Human), UniProt P51956); settings: H929 live cell
Experimental: as §1

TLK1 = TLK1 (Homo sapiens (Human), UniProt Q9UKI8); settings: H929 live cell
Experimental: as §1

[2] = test system: CaMK2a, CaMK2b, CaMK2d, CaMK2g; settings: H929 live cell; for % inhibition: 10 μM, range class
Experimental: as §1

FRAP = FRAP (Homo sapiens (Human), UniProt P42345); settings: H929 live cell
Experimental: as §1

CDK5 = CDK5 (Homo sapiens (Human), UniProt Q00535); settings: H929 live cell
Experimental: as §1

MAP2K1, MAP2K2 = settings: 10 μM, H929 live cell; range class
Experimental: as §1

RSK1 domain2 = RSK1 domain2 (Homo sapiens (Human), UniProt Q15418); settings: H929 live cell
Experimental: as §1

PKCi = PKCi (Homo sapiens (Human), UniProt P41743); settings: H929 live cell
Experimental: as §1

p70S6K = p70S6K (Homo sapiens (Human), UniProt P23443); settings: H929 live cell
Experimental: as §1

STLK5 = STLK5 (Homo sapiens (Human), UniProt Q7RTN6); settings: H929 live cell
Experimental: as §1

IRAK4 = IRAK4 (Homo sapiens (Human), UniProt Q9NWZ3); settings: H929 live cell
Experimental: as §1

GCN2 domain2 = GCN2 domain2 (Homo sapiens (Human), UniProt Q9P2K8); settings: H929 live cell
Experimental: as §1

[3] = range class, read-out: % inhibition

RSK1 domain2, sequence (Q15418 whole entry, the tested form may be a part): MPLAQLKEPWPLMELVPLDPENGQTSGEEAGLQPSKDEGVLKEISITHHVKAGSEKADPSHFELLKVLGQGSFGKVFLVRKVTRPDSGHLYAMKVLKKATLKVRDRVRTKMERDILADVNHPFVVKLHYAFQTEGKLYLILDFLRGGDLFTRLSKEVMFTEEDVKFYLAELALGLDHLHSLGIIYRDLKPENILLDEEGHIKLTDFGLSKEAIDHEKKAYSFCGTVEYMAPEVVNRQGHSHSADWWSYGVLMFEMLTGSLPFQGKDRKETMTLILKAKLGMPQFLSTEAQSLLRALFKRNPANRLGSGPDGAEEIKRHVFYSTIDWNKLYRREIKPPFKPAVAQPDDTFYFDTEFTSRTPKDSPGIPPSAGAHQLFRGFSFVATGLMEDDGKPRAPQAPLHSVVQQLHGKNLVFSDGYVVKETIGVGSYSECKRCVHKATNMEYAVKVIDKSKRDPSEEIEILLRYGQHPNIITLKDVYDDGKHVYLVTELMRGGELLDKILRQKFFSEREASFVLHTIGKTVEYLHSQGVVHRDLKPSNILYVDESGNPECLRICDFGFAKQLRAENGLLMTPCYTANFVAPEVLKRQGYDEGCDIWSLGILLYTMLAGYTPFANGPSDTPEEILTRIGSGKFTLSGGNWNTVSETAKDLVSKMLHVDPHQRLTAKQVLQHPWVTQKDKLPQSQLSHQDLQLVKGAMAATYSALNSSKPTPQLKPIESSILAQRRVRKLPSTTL
BARK1, sequence (P25098 whole entry): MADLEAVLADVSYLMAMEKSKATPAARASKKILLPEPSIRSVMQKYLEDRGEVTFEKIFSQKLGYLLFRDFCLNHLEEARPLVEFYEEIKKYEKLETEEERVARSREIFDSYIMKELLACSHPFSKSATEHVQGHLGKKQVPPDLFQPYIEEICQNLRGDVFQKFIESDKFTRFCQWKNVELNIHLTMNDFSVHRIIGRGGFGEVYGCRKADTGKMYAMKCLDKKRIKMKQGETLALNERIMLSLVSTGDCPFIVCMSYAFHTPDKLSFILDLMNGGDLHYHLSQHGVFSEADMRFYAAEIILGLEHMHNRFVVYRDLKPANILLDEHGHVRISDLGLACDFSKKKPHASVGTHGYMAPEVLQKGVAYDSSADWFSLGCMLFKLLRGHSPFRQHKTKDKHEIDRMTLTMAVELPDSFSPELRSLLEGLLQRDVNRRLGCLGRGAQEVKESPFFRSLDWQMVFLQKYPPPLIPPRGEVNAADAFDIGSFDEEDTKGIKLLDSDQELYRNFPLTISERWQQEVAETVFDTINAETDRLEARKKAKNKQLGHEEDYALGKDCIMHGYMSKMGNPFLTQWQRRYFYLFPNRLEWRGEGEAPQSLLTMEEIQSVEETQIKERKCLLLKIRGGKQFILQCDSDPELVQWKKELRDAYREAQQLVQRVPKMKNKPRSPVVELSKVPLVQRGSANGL
PEK, sequence (Q9NZJ5 30-1116): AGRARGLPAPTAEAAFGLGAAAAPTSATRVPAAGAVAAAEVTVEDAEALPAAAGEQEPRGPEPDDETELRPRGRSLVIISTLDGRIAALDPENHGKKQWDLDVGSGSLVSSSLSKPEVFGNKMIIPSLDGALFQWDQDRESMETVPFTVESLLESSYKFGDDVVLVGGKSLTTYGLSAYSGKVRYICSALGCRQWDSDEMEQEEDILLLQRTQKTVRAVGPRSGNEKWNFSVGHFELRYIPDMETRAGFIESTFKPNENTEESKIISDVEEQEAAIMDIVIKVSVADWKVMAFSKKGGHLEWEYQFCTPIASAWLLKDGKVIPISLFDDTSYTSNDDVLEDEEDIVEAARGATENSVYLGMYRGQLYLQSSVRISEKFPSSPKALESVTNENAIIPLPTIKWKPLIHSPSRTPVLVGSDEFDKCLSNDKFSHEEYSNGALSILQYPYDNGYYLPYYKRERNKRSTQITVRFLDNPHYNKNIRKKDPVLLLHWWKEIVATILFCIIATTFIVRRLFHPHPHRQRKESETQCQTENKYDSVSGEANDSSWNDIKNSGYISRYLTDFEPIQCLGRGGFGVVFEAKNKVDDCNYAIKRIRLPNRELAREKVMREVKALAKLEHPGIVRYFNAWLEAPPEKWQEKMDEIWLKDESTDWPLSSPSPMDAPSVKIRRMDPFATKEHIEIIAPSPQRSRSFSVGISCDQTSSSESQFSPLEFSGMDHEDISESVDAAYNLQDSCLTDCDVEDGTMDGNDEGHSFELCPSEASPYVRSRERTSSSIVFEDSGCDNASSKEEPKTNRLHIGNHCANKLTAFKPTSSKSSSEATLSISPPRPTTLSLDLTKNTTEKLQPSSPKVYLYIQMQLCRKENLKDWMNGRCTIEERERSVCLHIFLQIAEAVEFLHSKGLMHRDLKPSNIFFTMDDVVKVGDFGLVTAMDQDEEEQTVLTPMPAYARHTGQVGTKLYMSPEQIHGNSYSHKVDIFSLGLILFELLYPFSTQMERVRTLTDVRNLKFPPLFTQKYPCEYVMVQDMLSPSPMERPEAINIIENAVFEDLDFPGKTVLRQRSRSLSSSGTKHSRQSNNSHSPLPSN
LYN, sequence (P07948 whole entry): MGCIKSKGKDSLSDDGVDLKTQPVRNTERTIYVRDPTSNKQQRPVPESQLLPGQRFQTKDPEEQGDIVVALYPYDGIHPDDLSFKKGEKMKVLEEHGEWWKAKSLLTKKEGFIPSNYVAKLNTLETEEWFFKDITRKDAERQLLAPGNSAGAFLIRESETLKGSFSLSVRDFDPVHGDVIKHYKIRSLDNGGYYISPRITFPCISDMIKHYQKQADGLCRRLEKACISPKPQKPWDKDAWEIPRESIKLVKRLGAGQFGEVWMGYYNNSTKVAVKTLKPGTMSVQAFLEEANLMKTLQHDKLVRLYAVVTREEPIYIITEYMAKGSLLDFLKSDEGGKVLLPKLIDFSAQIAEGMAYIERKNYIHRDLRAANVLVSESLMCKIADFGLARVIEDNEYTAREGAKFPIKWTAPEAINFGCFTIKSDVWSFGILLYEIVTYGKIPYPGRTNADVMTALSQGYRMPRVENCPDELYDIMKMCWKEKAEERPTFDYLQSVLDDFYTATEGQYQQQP
STLK5, sequence (Q7RTN6 whole entry): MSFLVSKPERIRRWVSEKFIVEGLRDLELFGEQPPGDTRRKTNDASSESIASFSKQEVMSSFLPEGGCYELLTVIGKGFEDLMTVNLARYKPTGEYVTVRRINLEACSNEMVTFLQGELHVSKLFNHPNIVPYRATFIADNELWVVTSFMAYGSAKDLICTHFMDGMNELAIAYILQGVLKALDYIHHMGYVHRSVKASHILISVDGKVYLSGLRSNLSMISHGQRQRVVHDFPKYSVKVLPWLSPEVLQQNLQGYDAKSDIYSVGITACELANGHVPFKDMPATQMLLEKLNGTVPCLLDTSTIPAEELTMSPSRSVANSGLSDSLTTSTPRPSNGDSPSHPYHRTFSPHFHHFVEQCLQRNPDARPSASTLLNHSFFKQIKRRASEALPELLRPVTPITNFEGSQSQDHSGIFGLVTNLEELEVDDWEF
CDK5, sequence (Q00535 whole entry): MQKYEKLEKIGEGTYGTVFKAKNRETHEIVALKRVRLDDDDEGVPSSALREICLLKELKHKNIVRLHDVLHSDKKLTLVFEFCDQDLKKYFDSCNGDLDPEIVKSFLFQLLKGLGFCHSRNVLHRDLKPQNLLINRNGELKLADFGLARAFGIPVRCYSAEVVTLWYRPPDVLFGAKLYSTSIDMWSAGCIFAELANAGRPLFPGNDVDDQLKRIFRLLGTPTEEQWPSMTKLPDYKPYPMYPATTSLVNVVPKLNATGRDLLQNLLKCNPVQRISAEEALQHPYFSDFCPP
NuaK2, sequence (Q9H093 whole entry): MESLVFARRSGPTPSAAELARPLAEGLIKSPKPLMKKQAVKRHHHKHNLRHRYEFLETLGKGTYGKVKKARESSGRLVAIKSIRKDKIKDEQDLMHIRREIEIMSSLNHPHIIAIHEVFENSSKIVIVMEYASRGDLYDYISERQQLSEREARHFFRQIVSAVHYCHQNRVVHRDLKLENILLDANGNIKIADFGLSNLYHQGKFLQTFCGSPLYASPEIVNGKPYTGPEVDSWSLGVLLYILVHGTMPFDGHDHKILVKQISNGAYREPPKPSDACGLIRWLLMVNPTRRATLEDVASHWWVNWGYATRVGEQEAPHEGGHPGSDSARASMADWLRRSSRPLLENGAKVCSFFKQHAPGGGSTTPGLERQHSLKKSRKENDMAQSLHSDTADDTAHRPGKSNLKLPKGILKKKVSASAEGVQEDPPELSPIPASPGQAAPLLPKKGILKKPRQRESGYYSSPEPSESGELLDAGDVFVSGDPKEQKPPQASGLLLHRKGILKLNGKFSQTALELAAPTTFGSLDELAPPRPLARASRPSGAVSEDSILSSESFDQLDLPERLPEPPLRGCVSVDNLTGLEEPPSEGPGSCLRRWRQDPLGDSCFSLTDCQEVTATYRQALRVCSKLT
p70S6K, sequence (P23443 whole entry): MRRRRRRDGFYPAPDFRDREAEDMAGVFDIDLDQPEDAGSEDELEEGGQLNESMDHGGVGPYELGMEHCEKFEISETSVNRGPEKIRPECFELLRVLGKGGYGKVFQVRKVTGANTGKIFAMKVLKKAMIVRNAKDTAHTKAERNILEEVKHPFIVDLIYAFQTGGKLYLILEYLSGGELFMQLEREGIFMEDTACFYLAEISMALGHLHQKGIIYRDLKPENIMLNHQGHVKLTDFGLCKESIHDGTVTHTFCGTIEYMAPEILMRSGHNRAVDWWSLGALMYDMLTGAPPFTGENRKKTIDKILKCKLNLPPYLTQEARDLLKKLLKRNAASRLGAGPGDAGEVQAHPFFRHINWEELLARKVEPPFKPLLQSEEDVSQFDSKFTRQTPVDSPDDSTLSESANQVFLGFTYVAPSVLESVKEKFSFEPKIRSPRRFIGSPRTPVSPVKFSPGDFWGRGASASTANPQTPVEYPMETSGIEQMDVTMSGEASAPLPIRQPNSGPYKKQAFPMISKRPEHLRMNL

## COc1cc(NS(=O)(=O)C2CC2)ccc1-c1cnc(N)c(-c2ccc3c(c2)CCNC3=O)c1 [Compound I-50, N-(4-(6-amino-5-(1-oxo-1,2,3,4-tetrahydroisoquinolin-6-yl)pyridin-3-yl)-3-methoxyphenyl) cyclopropanesulfonamide]
CaMK1d; [3]
  inhibition at 10 µM: 0%
CaMK1d; read-out: inhibition (10 μM)
  inhibition at 10 µM: 10.6%
PEK; [3]
  inhibition at 10 µM: 0%
PEK; read-out: inhibition (10 μM)
  inhibition at 10 µM: 7.9%
MAP2K3; [3]
  inhibition at 10 µM: 0%
MAP2K3; read-out: inhibition (10 μM)
  inhibition at 10 µM: -5.7%
MLK3; [3]
  inhibition at 10 µM: 35 to 40%
MLK3; read-out: inhibition (10 μM)
  inhibition at 10 µM: 40.9%
[1]
  % inhibition: >90%
  inhibition (10 μM): 96.3%
p38d, p38g
  % inhibition: 0.0%
  inhibition (10 μM): 7.4%
MSK1 domain1; [3]
  inhibition at 10 µM: 0%
MSK1 domain1; read-out: inhibition (10 μM)
  inhibition at 10 µM: 0.1%
MARK2, MARK3
  % inhibition: 0.0%
  inhibition (10 μM): 0.4%
NuaK2; [3]
  inhibition at 10 µM: 35 to 40%
NuaK2; read-out: inhibition (10 μM)
  inhibition at 10 µM: 40.8%
PKR; [3]
  inhibition at 10 µM: 0%
PKR; read-out: inhibition (10 μM)
  inhibition at 10 µM: 1.8%
JAK1 domain1; [3]
  inhibition at 10 µM: 0%
JAK1 domain1; read-out: inhibition (10 μM)
  inhibition at 10 µM: -19.8%
MAP2K6; [3]
  inhibition at 10 µM: 0%
MAP2K6; read-out: inhibition (10 μM)
  inhibition at 10 µM: 10.9%
MSK2 domain1; [3]
  inhibition at 10 µM: 0%
MSK2 domain1; read-out: inhibition (10 μM)
  inhibition at 10 µM: -2.8%
SGK3; [3]
  inhibition at 10 µM: 0%
SGK3; read-out: inhibition (10 μM)
  inhibition at 10 µM: 11.2%
AurA
  inhibition (10 μM): 11.9%
AurA; [3]
  inhibition at 10 µM: 0%
AurA; read-out: inhibition (10 μM)
  inhibition at 10 µM: 18%
BARK1; [3]
  inhibition at 10 µM: 0%
BARK1; read-out: inhibition (10 μM)
  inhibition at 10 µM: -19.4%
LYN; [3]
  inhibition at 10 µM: 0%
LYN; read-out: inhibition (10 μM)
  inhibition at 10 µM: 9.7%
LKB1; [3]
  inhibition at 10 µM: 0%
LKB1; read-out: inhibition (10 μM)
  inhibition at 10 µM: -1.1%
NEK6, NEK7
  % inhibition: 0.0%
  inhibition (10 μM): −54.5%
PRPK; [3]
  inhibition at 10 µM: 0%
PRPK; read-out: inhibition (10 μM)
  inhibition at 10 µM: -23.6%
MAP3K2, MAP3K3
  % inhibition: 0.0%
  inhibition (10 μM): 12.0%
MAST3; [3]
  inhibition at 10 µM: 0%
MAST3; read-out: inhibition (10 μM)
  inhibition at 10 µM: -0.5%
NEK3; [3]
  inhibition at 10 µM: 0%
NEK3; read-out: inhibition (10 μM)
  inhibition at 10 µM: -9.9%
TLK1; [3]
  inhibition at 10 µM: 0%
TLK1; read-out: inhibition (10 μM)
  inhibition at 10 µM: -7.5%
[2]
  % inhibition: 0.0%
  inhibition (10 μM): 26.8%
FRAP; [3]
  inhibition at 10 µM: 0%
FRAP; read-out: inhibition (10 μM)
  inhibition at 10 µM: 21.5%
CDK5; [3]
  inhibition at 10 µM: 0%
CDK5; read-out: inhibition (10 μM)
  inhibition at 10 µM: 11.3%
MAP2K1, MAP2K2
  % inhibition: 0.0%
RSK1 domain2; [3]
  inhibition at 10 µM: 0%
RSK1 domain2; read-out: inhibition (10 μM)
  inhibition at 10 µM: 1%
PKCi; [3]
  inhibition at 10 µM: 0%
PKCi; read-out: inhibition (10 μM)
  inhibition at 10 µM: -15%
p70S6K; [3]
  inhibition at 10 µM: 0%
p70S6K; read-out: inhibition (10 μM)
  inhibition at 10 µM: 2.4%
STLK5; [3]
  inhibition at 10 µM: 0%
STLK5; read-out: inhibition (10 μM)
  inhibition at 10 µM: -22.3%
IRAK4; [3]
  inhibition at 10 µM: 0%
IRAK4; read-out: inhibition (10 μM)
  inhibition at 10 µM: 19.6%
GCN2 domain2; [3]
  inhibition at 10 µM: 0%
GCN2 domain2; read-out: inhibition (10 μM)
  inhibition at 10 µM: -12.3%

## Nc1ncc(-c2ccc(NS(=O)(=O)C3CC3)cc2F)cc1-c1ccc2c(c1)CCNC2=O [Compound I-51, N-(4-(6-amino-5-(1-oxo-1,2,3,4-tetrahydroisoquinolin-6-yl)pyridin-3-yl)-3-fluorophenyl) cyclopropanesulfonamide]
CaMK1d; [3]
  inhibition at 10 µM: 0%
CaMK1d; read-out: inhibition (10 μM)
  inhibition at 10 µM: -1.7%
PEK; [3]
  inhibition at 10 µM: 0%
PEK; read-out: inhibition (10 μM)
  inhibition at 10 µM: -16.3%
MAP2K3; [3]
  inhibition at 10 µM: 0%
MAP2K3; read-out: inhibition (10 μM)
  inhibition at 10 µM: 0.9%
MLK3; [3]
  inhibition at 10 µM: 35 to 40%
MLK3; read-out: inhibition (10 μM)
  inhibition at 10 µM: 42.3%
[1]
  % inhibition: >90%
  inhibition (10 μM): 97.2%
p38d, p38g
  % inhibition: 0.0%
  inhibition (10 μM): 2.3%
MSK1 domain1; [3]
  inhibition at 10 µM: 0%
MSK1 domain1; read-out: inhibition (10 μM)
  inhibition at 10 µM: 11.4%
MARK2, MARK3
  % inhibition: 0.0%
  inhibition (10 μM): 14.9%
NuaK2; [3]
  inhibition at 10 µM: 35 to 40%
NuaK2; read-out: inhibition (10 μM)
  inhibition at 10 µM: 45.1%
PKR; [3]
  inhibition at 10 µM: 0%
PKR; read-out: inhibition (10 μM)
  inhibition at 10 µM: 3.8%
JAK1 domain1; [3]
  inhibition at 10 µM: 0%
JAK1 domain1; read-out: inhibition (10 μM)
  inhibition at 10 µM: -8.2%
MAP2K6; [3]
  inhibition at 10 µM: 0%
MAP2K6; read-out: inhibition (10 μM)
  inhibition at 10 µM: -3.5%
MSK2 domain1; [3]
  inhibition at 10 µM: 0%
MSK2 domain1; read-out: inhibition (10 μM)
  inhibition at 10 µM: -8%
SGK3; [3]
  inhibition at 10 µM: 0%
SGK3; read-out: inhibition (10 μM)
  inhibition at 10 µM: 26.3%
AurA
  inhibition (10 μM): 43.2%
AurA; [3]
  inhibition at 10 µM: 35 to 40%
AurA; read-out: inhibition (10 μM)
  inhibition at 10 µM: 46.7%
BARK1; [3]
  inhibition at 10 µM: 0%
BARK1; read-out: inhibition (10 μM)
  inhibition at 10 µM: -5.1%
LYN; [3]
  inhibition at 10 µM: 0%
LYN; read-out: inhibition (10 μM)
  inhibition at 10 µM: -21.9%
LKB1; [3]
  inhibition at 10 µM: 0%
LKB1; read-out: inhibition (10 μM)
  inhibition at 10 µM: 5.1%
NEK6, NEK7
  % inhibition: 0.0%
  inhibition (10 μM): −63.6%
PRPK; [3]
  inhibition at 10 µM: 0%
PRPK; read-out: inhibition (10 μM)
  inhibition at 10 µM: -47.4%
MAP3K2, MAP3K3
  % inhibition: 0.0%
  inhibition (10 μM): 26.7%
MAST3; [3]
  inhibition at 10 µM: 0%
MAST3; read-out: inhibition (10 μM)
  inhibition at 10 µM: 7%
NEK3; [3]
  inhibition at 10 µM: 0%
NEK3; read-out: inhibition (10 μM)
  inhibition at 10 µM: -13%
TLK1; [3]
  inhibition at 10 µM: 0%
TLK1; read-out: inhibition (10 μM)
  inhibition at 10 µM: -11.8%
[2]
  % inhibition: 0.0%
  inhibition (10 μM): 19.2%
FRAP; [3]
  inhibition at 10 µM: 0%
FRAP; read-out: inhibition (10 μM)
  inhibition at 10 µM: 25.1%
CDK5; [3]
  inhibition at 10 µM: 35 to 40%
CDK5; read-out: inhibition (10 μM)
  inhibition at 10 µM: 37.2%
MAP2K1, MAP2K2
  % inhibition: 0.0%
RSK1 domain2; [3]
  inhibition at 10 µM: 0%
RSK1 domain2; read-out: inhibition (10 μM)
  inhibition at 10 µM: 11%
PKCi; [3]
  inhibition at 10 µM: 0%
PKCi; read-out: inhibition (10 μM)
  inhibition at 10 µM: -49.1%
p70S6K; [3]
  inhibition at 10 µM: 0%
p70S6K; read-out: inhibition (10 μM)
  inhibition at 10 µM: -21.6%
STLK5; [3]
  inhibition at 10 µM: 0%
STLK5; read-out: inhibition (10 μM)
  inhibition at 10 µM: -17.1%
IRAK4; [3]
  inhibition at 10 µM: 0%
IRAK4; read-out: inhibition (10 μM)
  inhibition at 10 µM: 16.4%
GCN2 domain2; [3]
  inhibition at 10 µM: 0%
GCN2 domain2; read-out: inhibition (10 μM)
  inhibition at 10 µM: -5.1%
